Experimental data from patent publication US9695155B2, “Herbicidal substituted pyrimidinyloxy benzene compounds” (E. I. DU PONT DE NEMOURS AND COMPANY, priority 2013, dated 2017).

Tests used:
[1] = tested on: surinam grass; assay: Test C postemergence; format: in vivo, Brachiaria decumbens; conditions: for Plant response rating, Surinam Grass: Postemergence, scale 0 to 100 (0 no effect, 100 complete control)
Description: (§1) Seeds of plant species selected from blackgrass (Alopecurus myosuroides), Italian ryegrass (Lolium multiflorum), wheat, winter (winter wheat, Triticum aestivum), galium (catchweed bedstraw, Galium aparine), corn (Zea mays), large (Lg) crabgrass (Digitaria sanguinalis), giant foxtail (Setaria faberii), johnsongrass (Sorghum halepense), lambsquarters (Chenopodium album), morningglory (Ipomoea coccinea), yellow nutsedge (Cyperus esculentus), pigweed (Amaranthus retroflexus), ragweed (common ragweed, Ambrosia elatior), soybean (Glycine max), barnyardgrass (Echinochloa crus-galli), oilseed rape (Brassica napus), waterhemp (common waterhemp, Amaranthus rudis), kochia (Kochia scoparia), wild oat (Avena fatua), surinam grass (Brachiaria decumbens), foxtail, green (green foxtail, Setaria viridis), goosegrass (Eleusine indica), bromegrass, downy (downy bromegrass, Bromus tectorum), nightshade (eastern black nightshade, Solanum ptycanthum), cocklebur (common cocklebur, Xanthium strumarium), cupgrass, woolly (woolly cupgrass, Eriochloa villosa), bermudagrass (Cynodon dactylon), sunflower, (common oilseed sunflower, Helianthus annuus), Russian thistle (Salsola kali), and velvetleaf (Abutilon theophrasti) were planted into a blend of loam soil and sand and treated preemergence with test chemicals formulated in a non-phytotoxic solvent mixture which included a surfactant.
At the same time, plants selected from these crop and weed species and also barley, winter (winter barley, Hordeum vulgare), windgrass (Apera spica-venti), chickweed (common chickweed, Stellaria media), deadnettle (henbit deadnettle, Lamium amplexicaule), and canarygrass (littleseed canarygrass, Phalaris minor) were planted in pots containing Redi-Earth® planting medium (Scotts Company, 14111 Scottslawn Road, Marysville, Ohio 43041) comprising spaghnum peat moss, vermiculite, wetting agent and starter nutrients and treated with postemergence applications of test chemicals formulated in the same manner. Plants ranged in height from 2 to 18 cm (1- to 4-leaf stage) for postemergence treatments. […]

[2] = tested on: cocklebur; assay: Test C postemergence; format: in vivo, Xanthium strumarium; conditions: for Plant response rating (0 to 100), Cocklebur: postemergence; for Plant response rating, Cocklebur: Postemergence, scale 0 to 100 (0 no effect, 100 complete control)
Description: as §1
(§2) At the same time, plants selected from these crop and weed species and also barley, winter (winter barley, Hordeum vulgare), windgrass (Apera spica-venti), chickweed (common chickweed, Stellaria media), deadnettle (henbit deadnettle, Lamium amplexicaule), and canarygrass (littleseed canarygrass, Phalaris minor) were planted in pots containing Redi-Earth® planting medium (Scotts Company, 14111 Scottslawn Road, Marysville, Ohio 43041) comprising spaghnum peat moss, vermiculite, wetting agent and starter nutrients and treated with postemergence applications of test chemicals formulated in the same manner. Plants ranged in height from 2 to 18 cm (1- to 4-leaf stage) for postemergence treatments. Treated plants and controls were maintained in a greenhouse for 13 to 15 days, after which time all species were compared to controls and visually evaluated. Plant response ratings, summarized in Table C, are based on a scale of 0 to 100 where 0 is no effect and 100 is complete control. A dash (-) response means no test result.

[3] = tested on: bermudagrass; assay: Test C postemergence; format: in vivo, Cynodon dactylon; conditions: for Plant response rating (0 to 100), Bermudagrass: postemergence; for Plant response rating, Bermudagrass: Postemergence, scale 0 to 100 (0 no effect, 100 complete control)
Description: as §1, §2

[4] = tested on: windgrass; assay: Test C postemergence; format: in vivo, Apera spica-venti; conditions: for Plant response rating (0 to 100), Windgrass: postemergence; for Plant response rating, Windgrass: Postemergence, scale 0 to 100 (0 no effect, 100 complete control)
Description: as §1, §2

[5] = tested on: deadnettle; assay: Test C postemergence; format: in vivo, Lamium amplexicaule; conditions: for Plant response rating (0 to 100), Deadnettle: postemergence; for Plant response rating, Deadnettle: Postemergence, scale 0 to 100 (0 no effect, 100 complete control)
Description: as §1, §2

[6] = tested on: canarygrass; assay: Test C postemergence; format: in vivo, Phalaris minor; conditions: for Plant response rating (0 to 100), Canarygrass: postemergence; for Plant response rating, Canarygrass: Postemergence, scale 0 to 100 (0 no effect, 100 complete control)
Description: as §1, §2

[7] = tested on: smartweed; assay: Test E preemergence; format: in vivo, ladysthumb smartweed; conditions: for Smartweed plant response rating: scale 0 to 100 (0 no effect, 100 complete control); for Plant response rating, Smartweed: scale 0 to 100, 0 no effect, 100 complete control
Description: Seeds of plant species selected from corn (Zea mays), soybean (Glycine max), velvetleaf (Abutilon theophrasti), lambsquarters (Chenopodium album), wild poinsettia (Euphorbia heterophylla), palmer pigweed (Amaranthus palmeri), waterhemp (common waterhemp, Amaranthus rudis), surinam grass (Brachiaria decumbens), large (Lg) crabgrass (Digitaria sanguinalis), Brazilian crabgrass (Digitaria horizontalis), fall panicum (Panicum dichotomiflorum), giant foxtail (Setaria faberii), green foxtail (Setaria viridis), goosegrass (Eleusine indica), johnsongrass (Sorghum halepense), ragweed (common ragweed, Ambrosia elatior), barnyardgrass (Echinochloa crus-galli), sandbur (southern sandbur, Cenchrus echinatus), arrowleaf sida (Sida rhombifolia), Italian ryegrass (Lolium multiflorum), dayflower (Virginia (VA) dayflower, Commelina virginica), field bindweed (Convolvulus arvensis), morningglory (Ipomoea coccinea), nightshade (eastern black nightshade, Solanum ptycanthum), kochia (Kochia scoparia), yellow nutsedge (Cyperus esculentus), cocklebur (common cocklebur, Xanthium strumarium), smartweed (ladysthumb smartweed, and hairy beggarticks (Bidens pilosa), were planted into a silt loam soil and treated preemergence with test chemicals formulated in a non-phytotoxic solvent mixture which included a surfactant.
At the same time, plants from these crop and weed species and also horseweed (Canada horseweed, Conyza canadensis), waterhemp_RES1, (ALS & Triazine resistant common waterhemp, Amaranthus rudis), and waterhemp_RES2, (ALS & HPPD resistant common waterhemp, Amaranthus rudis) were planted in pots containing Redi-Earth® planting medium (Scotts Company, 14111 Scottslawn Road, Marysville, Ohio 43041) comprising spaghnum peat moss, vermiculite, wetting agent and starter nutrients were treated with postemergence applications of test chemicals formulated in the same manner. Plants ranged in height from 2 to 18 cm for postemergence treatments (1- to 4-leaf stage). Treated plants and controls were maintained in a greenhouse for 14 to 21 days, after which time all species were compared to controls and visually evaluated. Plant response ratings, summarized in Table E, are based on a scale of 0 to 100 where 0 is no effect and 100 is complete control. A dash (-) response means no test result.

Clc1cnn(-c2ccccc2Oc2ncc(Br)cn2)c1 [Compound 5, 5-bromo-2-[2-(4-chloro-1H-pyrazol-1-yl)phenoxy]pyrimidine]
Plant response rating (0 to 100), Surinam Grass ([1]; 125 g ai/ha, postemergence): 45
Plant response rating, Surinam Grass ([1]; 31 g ai/ha, 13 to 15 days): 10
Plant response rating, Surinam Grass ([1]; 62 g ai/ha): 35
Plant response rating (0 to 100), Cocklebur ([2]; 125 g ai/ha): 50
Plant response rating (0 to 100), Cocklebur ([2]; 250 g ai/ha): 65
Plant response rating, Cocklebur ([2]; 31 g ai/ha, 13 to 15 days): 25
Plant response rating, Cocklebur ([2]; 62 g ai/ha): 50
Plant response rating (0 to 100), Bermudagrass ([3]; 125 g ai/ha): 10
Plant response rating (0 to 100), Bermudagrass ([3]; 250 g ai/ha): 35
Plant response rating, Bermudagrass ([3]; 31 g ai/ha, 13 to 15 days): 0
Plant response rating, Bermudagrass ([3]; 62 g ai/ha): 0
Plant response rating (0 to 100), Windgrass ([4]; 125 g ai/ha): 60
Plant response rating (0 to 100), Windgrass ([4]; 250 g ai/ha): 85
Plant response rating, Windgrass ([4]; 31 g ai/ha, 13 to 15 days): 10
Plant response rating, Windgrass ([4]; 62 g ai/ha): 40
Plant response rating (0 to 100), Deadnettle ([5]; 125 g ai/ha): 90
Plant response rating (0 to 100), Deadnettle ([5]; 250 g ai/ha): 90
Plant response rating, Deadnettle ([5]; 31 g ai/ha, 13 to 15 days): 50
Plant response rating, Deadnettle ([5]; 62 g ai/ha): 50
Plant response rating (0 to 100), Canarygrass ([6]; 125 g ai/ha): 30
Plant response rating (0 to 100), Canarygrass ([6]; 250 g ai/ha): 40
Plant response rating, Canarygrass ([6]; 31 g ai/ha, 13 to 15 days): 5
Plant response rating, Canarygrass ([6]; 62 g ai/ha): 10

N#Cc1cccc(Oc2ncc(Cl)cn2)c1-n1cc(Cl)cn1 [Compound 72]
Smartweed plant response rating ([7]; 16 g ai/ha): 0
Smartweed plant response rating ([7]; 31 g ai/ha): 0
Smartweed plant response rating ([7]; 62 g ai/ha): 0
Plant response rating, Smartweed ([7]; 125 g ai/ha): 90
Plant response rating, Smartweed ([7]; 250 g ai/ha): 98
